Assay: mean ionic activity coefficient (dimensionless); mn = molality of the nth substance listed, in mol/kg
Details: 101 kPa, Liquid

[Cl-].[Na+] [sodium chloride] + O
mean ionic activity coefficient
Details	273.15 K	283.15 K	293.15 K	303.15 K	313.15 K	323.15 K	333.15 K	343.15 K	353.15 K
m1 = 0.1	0.781	0.78	0.779	0.777	0.774	0.77	0.766	0.761	0.752
m1 = 0.2	0.734	0.735	0.735	0.732	0.729	0.725	0.72	0.713	0.703
m1 = 0.25	0.719	0.72	0.721	0.718	0.715	0.711	0.706	0.699	0.688
m1 = 0.5	0.672	0.677	0.681	0.68	0.678	0.674	0.667	0.659	0.647
m1 = 0.7	0.651	0.658	0.665	0.666	0.664	0.66	0.653	0.644	0.633
m1 = 0.75	0.646	0.655	0.662	0.663	0.662	0.658	0.651	0.641	0.631
m1 = 1	0.629	0.641	0.653	0.655	0.655	0.652	0.644	0.633	0.624

[Cl-].[K+] [potassium chloride] + O
mean ionic activity coefficient
Details	273.15 K	283.15 K	293.15 K	303.15 K	313.15 K	323.15 K	333.15 K	343.15 K
m1 = 0.1	0.772	0.771	0.77	0.767	0.764	0.761	0.757	0.752
m1 = 0.2	0.719	0.719	0.719	0.716	0.714	0.71	0.705	0.699
m1 = 0.5	0.643	0.647	0.651	0.649	0.647	0.644	0.638	0.632
m1 = 1	0.581	0.592	0.602	0.602	0.603	0.601	0.596	0.588

— the NIST ThermoML archive (doi:10.1021/acs.jced.5b00544)
